Assay results as given in patent US9994566B2, “Compound of 5-hydroxyl-1,7-naphthyridine substituted by aryl or heteroaryl, preparation method thereof and pharmaceutical use thereof” (SHENYANG SUNSHINE PHARMACEUTICAL CO. LTD., priority 2015, dated 2018).
“And” between values parts separate entries of the source, which are not always exact repeats. Identical values can stand only once.

What was measured:
hepatoma cells Hep3B = test: Promotion of erythropoietin (EPO) expression in hepatoma cells Hep3B in vitro (ELISA); assay type: cell-based, Human; settings: Hep3B supernatant, 24 hours, test doses 100 μmol/L and 10 μmol/L (dose of the tabulated value not given)
Excerpt: Biological Example 1: Development and Screening of In Vitro Detection Methods: Promotion of Erythropoietin Expression in Hepatoma Cells Hep3B In Vitro by HIF-PHD2 Inhibitor Compounds
The complete medium for culture of Experimental hepatoma cells Hep3B (China Center for Type Culture Collection, CCTCC) was MEM (Cat# GNM 41500, GIBCO, provided by Hangzhou Genom Biopharmaceutical Technology Co., Ltd) supplemented with 10% serum FBS (Cat#10099-141, GIBCO) and 1% P/S (Cat#GNM15140, provided by Hangzhou Genom Biopharmaceutical Technology Co., Ltd). Cells were cultured in a 37° C., 5% CO2 incubator. Experimental reagents included dimethyl sulfoxide (for molecular biology, >=99.9%, Catalog # D8418) purchased from Sigma. The ELISA kit was purchased from Quantikine IVD ELISA, Human Erythropoietin (R&D, DEP00). The test control AKB-6548 was prepared by the inventors or obtained by commercial purchase. The test substance was stored at −20° C. in the dark.
The test substance and the positive control substance were fully dissolved in sterile water or dimethylsulfoxide under dark conditions and prepared into a stock solution at a concentration of 10^−1 mol/L or 10^−2 mol/L. Each of the stock solutions was stored at −20° C. MEM medium containing 0.5% FBS was used as a diluent to dilute the stock solution of the test substance, to prepare a diluted test substance at a concentration of 100 μmol/L and 10 μmol/L. To a 96-well culture plate was added 200 μl/well (1.5 or 2.0×10^4 cells/well) of hepatoma cells Hep3B complete medium suspension and incubated overnight at 37° C. in a 5% CO2 incubator. The solution in the 96-well culture plate was removed and the cells were washed once with the MEM medium containing 0.5% FBS. 200 μl/well of the test substance was added in the dark, at a dose of 100 μmol/L and 10 μmol/L, and each dose set 2 wells, a test well and a spare well. A cell control well was prepared by replacing the test solution with the diluent (without test substance and solvent). A solvent control well was prepared by replacing the test solution with the diluent containing the corresponding concentration of solvent (dimethylsulfoxide) (without test substance). They were cultured in a 5% CO2 incubator at 37° C. for 24 hours. The supernatant was absorbed as a sample and cryopreserved at −20° C. for use. 100 μl/well of stop solution was added. OD value was detected by microplate reader A450 nm-A600 nm. The expression level of EPO (mIU/mL) promoted by the test substance was obtained according to the standard curve.

[1] = target: HIF Prolyl hydroxylases 2 (PHD2) (Homo sapiens, UniProt Q9GZT9); test: PHD2 inhibition, fluorescence polarization (FP) detection of HIF-1α / VBC complex interaction; assay type: biochemical; settings: PHD2 0.5 μg/μl, FAM-HIF (556-575) 1 μM, 30 minutes room temperature
HIF Prolyl hydroxylases 2 (PHD2), sequence (Q9GZT9 whole entry, species assumed): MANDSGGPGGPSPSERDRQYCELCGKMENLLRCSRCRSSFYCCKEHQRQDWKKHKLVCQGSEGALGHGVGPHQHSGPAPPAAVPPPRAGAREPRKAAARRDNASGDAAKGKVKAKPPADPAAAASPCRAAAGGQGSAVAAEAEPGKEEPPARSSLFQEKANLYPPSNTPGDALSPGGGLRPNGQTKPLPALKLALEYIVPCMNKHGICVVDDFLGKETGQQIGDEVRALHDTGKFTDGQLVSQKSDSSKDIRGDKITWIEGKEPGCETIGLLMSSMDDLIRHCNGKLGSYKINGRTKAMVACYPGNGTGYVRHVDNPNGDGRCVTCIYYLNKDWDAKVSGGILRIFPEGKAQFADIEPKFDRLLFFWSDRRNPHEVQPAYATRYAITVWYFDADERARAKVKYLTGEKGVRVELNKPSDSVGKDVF
Protocol: The interaction between hypoxia-inducible factor HIF-1α and VBC complex (von Hippel-Lindau protein-Elongin B-Elongin C, VBC) was detected by Fluorescence polarization (FP) method, to measure the enzyme inhibitory activity of the HIF Prolyl hydroxylases 2 (PHD2) inhibitor compounds.
Subsequently, the desired concentration of the test compound or the positive compound was added (the compound was replaced by the buffer in the negative control and the positive control). Finally, PHD2 was added at a final concentration of 0.5 μg/μl (PHD2 was replaced by the buffer in the negative control). They were mixed well and allowed to stand at room temperature for 30 minutes in the dark followed by 95° C. water bath for 1 minute, and then the reaction was terminated. After the temperature drops to room temperature, the sample was prepared well for use. EBC buffer (50 mM Tris.HCl, 120 mM NaCl, 0.5% NP-40) was added to the corresponding wells of a black 96-well test plate. A GST-VBC complex was added to the corresponding test wells at a final concentration of 300 nM (using the wells containing only EBC buffer as blank wells). Subsequently, the corresponding PHD2 prolyl hydroxylation reaction sample was added in the dark as a substrate with a final concentration of 100 nM. After mixing well, the lateral and longitudinal fluorescence intensity values were measured using a full-wavelength multifunctional microplate reader (TECAN infinite M1000) at an excitation wavelength of […] and an emission wavelength of 518 nm.
The fluorescence polarization (mP) was calculated: mP=1000×(lateral value−G factor×longitudinal value)/(lateral value+G factor×longitudinal value) wherein, lateral value=lateral fluorescence intensity value of test well−lateral fluorescence intensity value of blank well, longitudinal value=longitudinal fluorescence intensity value of test well−longitudinal fluorescence intensity value of blank well, […]
The IC50 was calculated using the non-linear regression data analysis method of Graphpad Prism 4.0 software ([…]).

male Balb/c mice = test: Effect on increasing erythrocyte of normal mice: reticulocyte (RETIC) count; assay type: in vivo; settings: four hours after the last administration; for RETIC, individual mice (Mice No. 1-8): one value per mouse; for RETIC, Average: orbital blood
Protocol: Biological Example 3: Effect of the Compounds of the Present Invention on Increasing Erythrocyte of Normal Mice
80 male Balb/c mice were divided into 11 groups, with 8 animals for each drug group, 10 animals for blank control group. Drug group: AKB-6548, 100 mg/kg, oral administration, once a day×3; FG-4592, 25 mg/kg, oral administration, once a day×3; EPO, 100 IU/kg, Day 1 and Day 3, subcutaneous injection, as positive control groups. Each of the compounds of the present invention was orally administrated at 25 mg/kg, once a day×3. Four hours after the last administration, orbital blood of all animals were collected and treated with EDTA-K2 anticoagulant, and reticulocytes (RETIC) were counted with a blood cell automated analyzer.

[2] = 100 IU/kg, subcutaneous injection, Day 1 and Day 3

| Molecule | EPO level of the test substance (hepatoma cells Hep3B) [mIU/mL] | IC50 [1] [µM] | further results |
| --- | --- | --- | --- |
| O=C(O)CNC(=O)c1ncc2nc(-c3ccc(Br)cc3)ccc2c1O [Compound 17, 2-{5-hydroxy-[2-(4-bromo)-phenyl)-[1,7]-naphthyridine-6-formamido} acetic acid] | 7.757 | 20 | – |
| O=C(O)CNC(=O)c1ncc2nc(-c3ccccc3)ccc2c1O [Compound 1] | 0.71 | 18 | – |
| COc1cccc(-c2ccc3c(O)c(C(=O)NCC(=O)O)nc(C)c3n2)c1 [Compound 4, 2-{5-hydroxy-[2-(3-methoxy)-phenyl]-8-methyl-[1,7]-napthyridine-6-formamido} acetic acid] | 1.512 | 6.9 | – |
| CC(C)(C)c1ccc(-c2ccc3c(O)c(C(=O)NCC(=O)O)ncc3n2)cc1 [Compound 16] | 7.046 | 48 | – |
| Cc1nc(C(=O)NCC(=O)O)c(O)c2ccc(-c3ccc(Cl)cc3)nc12 [Compound 3, 2-{5-hydroxy-[2-(4-chloro)-phenyl]-8-methyl-[1,7]-naphthyridine-6-formamido} acetic acid] | 0.52 | 85 | – |
| Cc1nc(C(=O)NCC(=O)O)c(O)c2ccc(-c3cccc(Br)c3)nc12 [Compound 12, 2-{5-hydroxy-[2-(3-bromo)-phenyl]-8-methyl-[1,7]-naphthyridine-6-formamido} acetic acid] | 4.536 | 4.1 | – |
| COc1cccc(-c2ccc3c(O)c(C(=O)NCC(=O)O)ncc3n2)c1 [Compound 15] | 6.316 | 7.7 | RETIC, individual mice (Mice No. 1-8) (male Balb/c mice; 25 mg/kg, oral, once a day × 3): 4.9 (3×) and 4.6 and 4.1 and 3.7 and 3.8 and 3.1; RETIC, Average (male Balb/c mice; 25 mg/kg, oral, once a day × 3): 4.25 |
| Cc1nc(C(=O)NCC(=O)O)c(O)c2ccc(-c3cccc([N+](=O)[O-])c3)nc12 [Compound 21, 2-{5-hydroxy-[2-(3-nitro)-phenyl]-8-methyl-[1,7]-naphthyridine-6-formamido} acetic acid] | 0.325 | 14 | – |
| COc1ccc(-c2ccc3c(O)c(C(=O)NCC(=O)O)nc(C)c3n2)cc1 [Compound 10, 2-{5-hydroxy-8-methyl-[2-(4-methoxy)-phenyl]-[1,7]-naphthyridine-6-formamido} acetic acid] | 0.64 | 63 | – |
| Cc1nc(C(=O)NCC(=O)O)c(O)c2ccc(-c3cccnc3)nc12 [Compound 5, 2-{5-hydroxy-8-methyl-[2-(3-pyridyl)]-[1,7]-naphthyridine-6-formamido} acetic acid] | 1.89 | 1.7 | – |
| Cc1nc(C(=O)NCC(=O)O)c(O)c2ccc(-c3ccc(C(C)(C)C)cc3)nc12 [Compound 11, 2-{5-hydroxy-8-methyl-[2-(4-tert-butyl)-phenyl]-[1,7]-naphthyridine-6-formamido} acetic acid] | 4.158 | 39 | – |
| COc1ccc(-c2ccc3c(O)c(C(=O)NCC(=O)O)ncc3n2)cc1 [Compound 2, 2-{5-hydroxy-[2-(4-methoxy)-phenyl]-[1,7]-naphthyridine-6-formamido} acetic acid] | 0.64 | 11 | – |
| O=C(O)CNC(=O)c1ncc2nc(-c3cccs3)ccc2c1O [Compound 18] | 8.888 | 5.7 | – |
| O=C(O)CNC(=O)c1ncc2nc(-c3cccc(F)c3)ccc2c1O [Compound 20, 2-{5-hydroxy-[2-(3-fluoro)-phenyl]-[1,7]-naphthyridine-6-formamido} acetic acid] | 10.685 | 0.82 | – |
| EPO: erythropoietin, glycoprotein hormone; positive control given by subcutaneous injection | – | – | RETIC, individual mice (Mice No. 1-8) (male Balb/c mice; [2]): 5 and 5.9 and 2.5 and 2.2 (2×) and 2.6 and 4.3 and 5.1; RETIC, Average (male Balb/c mice; [2]): 3.73 |
| O=C(O)CNC(=O)c1ncc2nc(-c3ccc4ccccc4c3)ccc2c1O [Compound 19, [(5-hydroxy-2-(naphthalen-2-yl)-[1,7]naphthyridine-6-carbonyl)-amino]-acetic acid] | 9.786 | 7.5 | – |
| Cc1nc(C(=O)NCC(=O)O)c(O)c2ccc(Oc3ccccc3)cc12 [FG-4592, reference compound] | 0.378 | – | RETIC, individual mice (Mice No. 1-8) (male Balb/c mice; 25 mg/kg, oral, once a day × 3, listed as FG-4592-A): 3.6 and 3.8 (2×) and 4 (2×) and 3.5 and 4.4 and 3.4; RETIC, Average (male Balb/c mice; 25 mg/kg, oral, once a day × 3): 3.73 |
| N#Cc1ccc(-c2cnc(C(=O)NCC(=O)O)c(O)c2)cc1 [AKB-6548, reference compound] | 0.13 | – | RETIC, individual mice (Mice No. 1-8) (male Balb/c mice; 100 mg/kg, oral, once a day × 3, listed as AKB-6548-A): 5.3 (2×) and 6.1 and 4 (2×) and 4.2 (2×) and 4.9; RETIC, Average (male Balb/c mice; 100 mg/kg, oral, once a day × 3): 4.75 |
| O=C(O)CNC(=O)c1ncc2nc(-c3cccc(Br)c3)ccc2c1O [Compound 13, 2-{5-hydroxy-2-(3-bromophenyl)-[1,7]-naphthyridine-6-formamido} acetic acid] | 0.832 | 0.41 | – |
| O=C(O)CNC(=O)c1ncc2nc(-c3ccc(Cl)cc3)ccc2c1O [Compound 8] | 0.68 | 43 | – |
| Cc1nc(C(=O)NCC(=O)O)c(O)c2ccc(-c3ccc(C#N)cc3)nc12 [Compound 22, 2-{5-hydroxy-[2-(4-cyano)-phenyl]-8-methyl-[1,7]-naphthyridine-6-formamido} acetic acid] | 0.53 | 9.3 | – |
